# Data published in patent publication US8889662B2, “Method to alter sex ratios in avian offspring” (University of Georgia Research Foundation, Inc., priority 2009, dated 2014).
# Legend:
# [1] = Plasma corticosterone in hens after CORT injections (FIG. 9); type: in vivo, chicken; settings: 0.5 mg CORT in peanut oil (physiologically high dose)
# Experimental: FIG. 9. Plasma corticosterone concentrations in hens after injections of 1.5 mg CORT, 0.5 mg CORT, oil control, and uninjected.
# To test for a dose-dependent effect of CORT on sex ratios, female leghorns will be housed in layer cages, provided access to food and water ad libitum and will be randomly divided into one of seven treatment groups (n=72 each). […] To test whether CORT is a mediator in the sex determination process, one group from each of these treatment sets will also receive a dose of RU-486 (0.5 mg dissolved in 500 ul dH20), a glucocorticoid receptor blocker, administered 15 min prior to the injection treatment itself. […] As a result, treatment with RU-486 should not interrupt normal laying cycles. One final group will receive no injection treatment.
# [2] = Example 1: plasma CORT radioimmunoassay after injection, chickens; type: in vivo, chicken; settings: hens
# Experimental: Approximately 19 h following the appearance of a mid-sequence egg, females received one of three treatments: (1) a high dose of CORT (2 mg in 0.5 ml peanut oil), (2) a control treatment (0.5 ml peanut oil), or (3) no injection treatment. The egg corresponding to the next ovulation event was labeled, collected, and incubated at 37° C. for a period of 7 days to allow for embryonic development. Embryos were separated and sexed using PCR based techniques as described above. The percentage of females producing male offspring in each group were calculated and compared using chi square analyses. Also, as described above, blood samples were taken from a subset of females one hour and four hours after injection to verify that the CORT treatment did, in fact, elevate maternal CORT concentrations at the time of meiotic segregation. CORT was quantified using a standard radioimmunoassay and CORT concentrations were log transformed and analyzed using an analysis of variance (ANOVA).
# [3] = Example 3: plasma corticosterone radioimmunoassay after injection, laying hens; type: in vivo, chicken; settings: 1.5 mg
# Experimental: Radioimmunoassays. Blood samples were collected from a separate set of hens to verify that CORT treatment elevated plasma corticosterone during the completion of meiotic segregation. Relative to the injections described above (5 h prior to ovulation), blood samples were collected from half of the CORT, CONT, and UN-treated hens at 1 h and the other half at 4 h (FIG. 6). Blood samples were collected from the brachial vein within 3 min of initial handling to avoid variation due to handling stress (Romero and Reed, 2005, Comp Biochem Physiol A; 140:73-79). Extraction and radioimmunoassay of plasma corticosterone were completed as described by Mendonça et al. (Mendonça et al., 1996, Horm Behav; 30:153-161). Twenty-four blood samples were analyzed from UN-treated hens (12 from each time period), 12 from CONT-treated hens (5 and 7 at 1 h and 4 h, respectively), and 12 from CORT-treated hens (6 from each time period).
# Statistical Analysis. […] All hormone data were non-normally distributed and were log-transformed for statistical analysis. Plasma corticosterone concentrations were analyzed among treatment groups and time points using an ANOVA and differences among individual treatment groups were analyzed using Fisher's PLSD. Statistical analyses were carried out using Statview software (SAS Institute, Cary, N.C. USA).
# laying hens = experiment: Preliminary studies with silastic CORT implants: CORT concentrations and laying patterns; type: in vivo, chicken
# Experimental: Additionally, concentrations of CORT and three other hormonal factors known to interact with CORT and ovarian follicular development—testosterone, progesterone, and leptin—will be measured in blood samples taken 4 h after ovulation as well as 4 and 6 h prior to ovulation in females from both treatment groups on days 3, 6, and 12 (to correspond with ovulation of collected eggs above). CORT concentrations will be measured in the yolk of each collected egg as well. […] Additionally, laying patterns were monitored for 2 weeks following implantation and 100% of birds implanted with CORT implants continued to lay at a similar frequency compared to before implantation, illustrating that we will be able to collect eggs from birds following this chronic implant treatment.
# [4] = system: zebra finch (Taeniopygia guttata); experiment: Example 2: disruption of ovulation, oviposition and embryo development after injection, zebra finches; type: in vivo; settings: 20 ug injection, relative to control and uninjected groups
# Experimental: Zebra finch (Taeniopygia guttata) pairs obtained from a breeding colony maintained at The University of Georgia were housed in individual cages and provided feed and water ad libidumn. Birds were kept under a 14 hour (h) light (L):10 h dark (D) light schedule. Egg-laying was monitored daily and eggs marked to record sequence order. Females were injected intraperitoneally after the first or second egg of the clutch was laid with one of three treatments: 20 μg of CORT dissolved in 50 μl peanut oil and 10% ethanol (CORT), 20 μg of progesterone dissolved in […] and 10% ethanol (P), or 50 μl of control peanut oil (C). A fourth set of females received no injection treatment (UN). […] The follicle ovulating 5 hours after injection, was laid approximately 36 hours after injection (FIG. 3). Ovulating follicles exposed to treatments were laid as the 3rd or 4th egg in the sequence (3rd egg if treatment was administered on the day the 1st egg was laid and the 4th egg in the sequence if treatment was administered on the day the 2nd egg was laid). Eggs were allowed to incubate in the nest for 8-12 days prior to collection to allow sufficient embryonic development for DNA extraction and molecular sexing analyses. Occasionally these treatments disrupted the oviposition immediately following the injection. Females that delayed oviposition after treatment were excluded from analysis because it was not possible to determine whether the egg collected the following day was from the ovulation event that occurred immediately following injection or from a delayed oviposition of the follicle ovulated the day prior to injection. Females that delayed oviposition were allowed to complete the clutch after which the treatment was repeated during the next clutch. […] Only 1/10 females treated with progesterone laid successfully. For this reason, progesterone treatments were eliminated from further analyses.
# [5] = system: zebra finch (Taeniopygia guttata); experiment: Example 1: offspring sex after a single maternal CORT injection at sex chromosome segregation, zebra finches; type: in vivo; settings: 20 ug CORT about 19 h after first egg, third egg of sequence, control injected 46%
# Experimental: This experiment was conducted to determine whether a single injection of CORT at the critical time of sex chromosome segregation is sufficient to skew offspring sex ratios towards females. Female zebra finches were monitored for signs of nest-building and egg-laying. Approximately 19 h following the appearance of the first egg (1 h before sex chromosome segregation), females received one of two treatments: (1) a high dose of CORT (20 ug in 50 ul peanut oil), or (2) a control treatment (50 ul peanut oil). Because oviposition and ovulation are nearly concurrent, ovulation of the second egg took place when the first egg was laid. Thus, the egg that would be affected by our treatment was the third egg in the sequence. Eggs were labeled as they were laid and were collected after 6 d of incubation for molecular sexing analysis as described above. The percentage of females producing male offspring in each group were calculated and compared using chi square analyses. Blood samples were taken from a subset of females 1 h and 2.5 h post injection to verify that the CORT injection did, in fact, elevate circulating maternal CORT concentrations. CORT was quantified using a standard radioimmunoassay and CORT concentrations were log transformed and analyzed using an analysis of variance (ANOVA).
smiles,measurement,setting,value
C[C@]12C[C@H](O)[C@H]3[C@@H](CCC4=CC(=O)CC[C@@]43C)[C@@H]1CC[C@@H]2C(=O)CO [corticosterone],CORT concentrations reached,[1],below 40 ng/ml
same,circulating CORT concentrations compared to controls,"[2]; 2 mg CORT in 0.5 ml peanut oil, within one hour of injection, p<0.0001",significantly increased circulating CORT concentrations
same,circulating CORT concentrations compared to controls,"[2]; 2 mg CORT, four hours post-injection",This difference disappeared
same,plasma corticosterone levels compared to CONT and UN treated hens,"[3]; 1 h after injection, p<0.0001 in both cases",significantly raised corticosterone levels
same,plasma corticosterone concentrations,"[3]; four hours post-injection, CORT-UN p<0.01, CORT-CONT p=0.07",only significantly elevated in CORT-treated hens
same,implanted birds that continued to lay at a similar frequency,"laying hens; silastic CORT implants, laying monitored for 2 weeks after implantation",100%
same,CORT concentrations after silastic CORT implants,"laying hens; within 2 d of implantation, persisted 1 week after implantation",significantly elevated CORT concentrations
same,"effect on oviposition, ovulation or visible development",[4]; listed as CORT,not more likely to occur
same,"effect on oviposition, ovulation or visible development",[4]; listed as Corticosterone,did not adversely affect oviposition or ovulation
same,eggs that were male (primary sex ratio),[5],71%
